We go through one compound from article PMC4919066 (PLoS Pathogens, 2016).

The test system of one test is HCMV Towne. Nature of the test: HCMV plaque reduction assay in HFFs. The settings on record: GCV 5 μM, 0.5 and 2 million cells/plate. Format: cell-based, Human Cytomegalovirus. Here is the method: (§1) Human Foreskin Fibroblasts (HFFs) passage 12–16 (ATCC, CRL-2088) and mouse embryonic fibroblasts (MEFs) passage 9–14 (ATCC, CRL-1658) were grown in Dulbecco's Modified Eagle Medium (DMEM) containing 10% fetal bovine serum (FBS) (Gibco, Carlsbad, CA) in a 5% CO2 incubator at 37°C. Infection with HCMV or HSV was performed in HFFs, and infection with mouse CMV was performed in MEFs. For HCMV, cells were seeded in either a 96-well plate or 100 mm culture plates (Corning Costar, Sigma Aldrich) at 0.5 or 2 million cells /plate. Following 90 minute adsorption, media was removed and cells were washed with PBS. Media containing 4% FBS and compounds were added to each well. Infected treated HFFs were collected at 72 hpi and lysates were assayed for luciferase activity using a luciferase assay kit (Promega, Madison, WI) on GloMax-Multi+ Detection System (Promega). In second cycle assays, supernatants were collected from all conditions of the first cycle at 96 hpi and used for infection of fresh HFFs in 96-well plates. Luciferase activity was measured 72 h following second cycle infection. For HSV1-KOS/Dlux/oriS, a luciferase assay was performed at 24 hpi. Plaque assays were performed with clinical isolates of HSV2 and HCMV Towne (ATCC VR-977). HFFs were seeded at 3 million cells/plate in 12-well plates and infected 24 h later with HSV2 at 200 PFU/well. For HCMV or MCMV, HFFs or MEFs were seeded at 0.5 or 2 million cells /plate in a 12-well plate and infected 24 hours later at 100 PFU/well. Following virus adsorption (60 min and 90 min for HSV and HCMV, respectively), virus was aspirated, and DMEM containing 4% fetal bovine serum (FBS) with (for HSV) or without (for HCMV/MCMV) 0.5% carboxymethyl-cellulose, were added with the compounds at indicated concentrations into triplicate wells. After incubation at 37°C for 10 days (for HCMV), 3 days for MCMV or 2 days (for HSV), the overlay was removed and plaques were counted after crystal violet staining.
On the technique in general: In a plaque reduction assay, fewer plaques than in the control indicate reduced infectivity or spread.

A further test deals with MDM2-IE2. Nature of the test: Co-immunoprecipitation MDM2-IE2 in transfected HEK293 cells. Format: cell-based. The settings on record: IE1/2 transfection, emetine 75 nM or GCV 5 μM for 4 h. As to the method:
HEK-293 cells seeded into 10 cm petri dishes were transfected with HCMV plasmid encoding IE1 and IE2 (pRL45), using Lipofectamine 2000 in serum free medium. After 6 h, 10% FBS containing media was added along with 10 μM of MG132. […] Cells were then harvested to prepare lysates for IP.
Non-infected, infected or emetine-treated HFFs were treated with MG132 (10 μM) for 12h. Cells were harvested after 24 hpi and lysed with IP buffer containing 150 mM NaCl, 50mM Tris pH 7.5, 2 mM EDTA, 0.5% TritonX-100 and 0.5% NP-40-40. 1 mg of lysate was precleared with bead slurry for 30 min. The precleared lysates were incubated with anti-MDM2 (2 μg) antibody overnight. The antibody complexes were isolated using protein A/G beads (Santa Cruz), washed three times with 50% IP buffer. The immunoprecipitate-protein A/G beads were boiled in SDS sample buffer, and the supernatant was analyzed on SDS-PAGE gels after immunoblotting as described previously. 1% of the cell lysate used for IP was loaded on gels as ‘Input’. Confirmatory reverse IPs were performed as described in each experiment. Isotype control antibodies included: rabbit IgG polyclonal, mouse IgG2a kappa and mouse IgG2b kappa monoclonal (Abcam). Mouse monoclonal RPS19 antibody (Abcam) served as an additional negative control for the IPs. Densitometry analysis was performed to determine relative ratio of immunoprecipitated protein to its input level.

The next test concerns MCMV. Nature of the test: MCMV plaque reduction assay in MEFs. Format: cell-based, mouse CMV. The settings on record: GCV 5 μM, 0.5 and 2 million cells/plate. As to the method: The pp28-luciferase HCMV Towne and a GCV-resistant pp28-luciferase were used. The recombinant viruses express luciferase under the control of the late CMV gene promoter, pp28. Luciferase expression is activated 48–72 hours post infection (hpi). The recombinant viruses provide a highly-sensitive reporter system which correlates with plaque reduction assay. The Towne HCMV strain (ATCC VR-977) was used for plaque reduction, quantitative reverse transcriptase PCR (qRT-PCR), and immunoprecipitation assays. Human herpes virus strains were: luciferase HSV1- KOS/Dlux/oriS [52] and clinical isolates of HSV2. The clinical isolates were provided by the clinical microbiology laboratory with no identifiers that can link to a specific subject. Murid Herpesvirus (MCMV: ATCC VR-1399) was used for infection of mouse embryonic fibroblasts (MEFs) and mice.
as §1, with “For HSV1-KOS/Dlux/oriS, a luciferase assay was performed at 24 hpi. Plaque assays were performed with clinical isolates of HSV2 and HCMV Towne (ATCC VR-977). HFFs were seeded at 3 million cells/plate in 12-well plates and infected 24 h later with HSV2 at 200 PFU/well. For HCMV or MCMV, HFFs or MEFs were seeded at 0.5 or 2 million cells /plate in a 12-well plate and infected 24 hours later at 100 PFU/well. Following virus adsorption (60 min and 90 min for HSV and HCMV, respectively), virus was aspirated, and DMEM containing 4% fetal bovine serum (FBS) with (for HSV) or without (for HCMV/MCMV) 0.5% carboxymethyl-cellulose, were added with the compounds at indicated concentrations into triplicate wells.” left out

Test [1] deals with HCMV. Nature of the test: Generation of drug resistant virus. Format: cell-based, Human Cytomegalovirus. Conditions: 5 passages, UL97 sequencing. Here is the method:
Screening of drug resistant virus was performed as reported. Two million cells were plated on a 6-well plate and infected with HCMV (MOI 0.05). […] The cells were maintained in DMEM with 4% FBS until plaques were observed. The supernatants from these plates were used to infect fresh HFFs in a 6-well plate and each time drug concentration was increased by two fold. […] DNA extracted from supernatants collected at the last stage was used for UL97 sequencing.

Test [2] has as its system HCMV. Nature of the test: Virus entry, pp65 immunofluorescence assay. It counts as cell-based, Human Cytomegalovirus. Conditions: emetine 75 nM, GCV 10 μM, CpG 2006 10 μM, added 24 h prior to infection.

Molecules are shown by their SMILES.

Regarding `Nc1nc(O)c2ncn(COC(CO)CO)c2n1` [GCV, Ganciclovir], the “HCMV inhibition and cell density” value with HCMV Towne is “inhibited HCMV and MCMV irrespective of cell density”. In addition, in the test on MDM2-IE2, the “interaction between MDM2 and IE2” value is reported as “had no effect on this interaction”. In addition, in the test with MCMV, the “MCMV inhibition and cell density” value is “inhibited HCMV and MCMV irrespective of cell density”. Besides, the “selection of resistant virus with increasing drug concentration” value in the test with HCMV [1] is “selected for a C607Y mutation in UL97”. Further, in the test with HCMV [2], the “inhibition of viral entry” value is reported as “neither emetine nor GCV inhibited viral entry”.
